Patent publication US6946458B2, “N-thiolated beta-lactams: novel antibacterial agents for methicillin-resistant Staphylococcus aureus” (University of South Florida, priority 1999, dated 2005)

Experiments:
Experiment in all cases: Kirby-Bauer agar disk diffusion
Conditions in all cases: Table 3; 6-mm disks, 20 μg test compound, 24 hours
MRSA USF652 = type: cell-based, Staphylococcus aureus
Experimental: (§1) In this study, a selection of N-methylthio-substituted β-lactams are examined for antimicrobial activity by the Kirby-Bauer disk diffusion method on agar plates. A variety of common Gram-positive and Gram-negative bacteria are tested, including clinical isolates of methicillin-resistant Staphylococcus aureus (MRSA).
(§2) Compound susceptibility measurements are obtained from agar disk diffusion experiments using 6-mm air-dried disks impregnated with 20 μg of the test compound. The values correspond to the average diameters in mm (triplicate experiments) for the zone of growth inhibition observed after 24 h. Staphylococcus aureus (ATCC 25923) and β-lactamase-producing strains of methicillin-resistant Staphylococcus aureus (labeled as MRSA USF652-659) are obtained from Lakeland Regional Medical Center, Lakeland, Fla. Staphylococcus epidermidis, Staphylococcus simulans, Staphylococcus simulans, and Microcossus luteus are clinical isolates from University of South Florida Medical Clinic. Nieserria gonnorhoeae (β-lactamase positive) is obtained from the Tampa Branch State Laboratory. PenG is penicillin G (potassium salt). Table 1 provides the zones of growth inhibition that are observed after 24 hours using the lactams of FIGS. 1A-1I (designated A-I, respectively).
(§3) Of particular interest is the ability of these compounds to retain their effectiveness against penicillin-resistant strains of Staphylococcus aureus, a dangerous hospital-borne pathogen which is becoming difficult to treat with conventional antibiotic therapy. The lactams were screened for antibacterial activity by disk diffusion on agar plates, and the resulting zones of bacterial growth inhibition measured (see Table 3; each lactam is designated by Figure number).
(§4) Table 3: Growth inhibition zones obtained from agar disk diffusion experiments using 6-mm air-dried disks impregnated with 20 μg of the test compound. The values correspond to the average diameters in mm for the zone of growth inhibition observed after 24 hours. Staphylococcus aureus and β-lactamase-producing strains of methicillin-resistant Staphylococcus aureus (labeled MRSA USF652-659) are obtained from a clinical testing laboratory at Lakeland Regional Medical Center, Lakeland, Fla.
(§5) Those compounds were tested for bioactivity using the Kirby-Bauer test on agar plates.
(§6) Biological activity is enhanced against β-lactamase producing strains of methicillin-resistant Staphylococcus aureus (MRSA). With the lactam shown in FIG. 11A serving as a lead structure, a series of other C-4 substituted derivatives (FIGS. 11B-11I) were investigated herein. Table 5 lists microbiological data for β-lactams from Kirby-Bauer Disc Diffusion Test Results (with each lactam identified by Figure number).
(§7) Scheme I summarizes the synthesis of ester compounds 4. 4-Carboxy benzaldehyde (1) is coupled with the appropriate alcohol using DCC/DMAP, followed by reaction with p-anisidine, to give imines 2. Staudinger coupling of methoxyacetyl chloride with imine 2 gives N-aryl protected β-lactam 3. N-Dearylation of β-lactam 3 with ceric ammonium nitrate and methylthiolation with N-(methylthio)phthalimide affords N-methylthio β-lactams 4. These compounds are tested for antibacterial activity by the Kirby-Bauer method of disc diffusion on agar plates. [drawing 7]

MRSA USF653 = type: cell-based, Staphylococcus aureus
Experimental: as §1, §2, §3, §4, §5, §6, §7

MRSA USF654 = type: cell-based, Staphylococcus aureus
Experimental: as §1, §2, §3, §4, §5, §6, §7

MRSA USF655 = type: cell-based, Staphylococcus aureus
Experimental: as §1, §2, §3, §4, §5, §6, §7

MRSA USF656 = type: cell-based, Staphylococcus aureus
Experimental: as §1, §2, §3, §4, §5, §6, §7

MRSA USF657 = type: cell-based, Staphylococcus aureus
Experimental: as §1, §2, §3, §4, §5, §6, §7

MRSA USF658 = type: cell-based, Staphylococcus aureus
Experimental: as §1, §2, §3, §4, §5, §6, §7

MRSA USF659 = type: cell-based, Staphylococcus aureus
Experimental: as §1, §2, §3, §4, §5, §6, §7

Micrococcus luteus = type: cell-based
Experimental: as §1, §2, §3, §4

[1] = system: Staphylococcus aureus (ATCC 25923); type: cell-based
Experimental: as §1, §2, §3, §4

[2] = system: Staphylococcus epidermidis; type: cell-based
Experimental: as §1, §2, §3, §4

S. simulans (ATCC 11631) = type: cell-based, Staphylococcus simulans
Experimental: as §1, §2, §3, §4

[3] = system: S. saprophyticus (ATCC 3552); type: cell-based, Staphylococcus saprophyticus
Experimental: as §1, §2, §3, §4

Structure (SMILES)	zone of growth inhibition, average diameter (MRSA USF652) [mm]	zone of growth inhibition, average diameter (MRSA USF653) [mm]	zone of growth inhibition, average diameter (MRSA USF654) [mm]	zone of growth inhibition, average diameter (MRSA USF655) [mm]	zone of growth inhibition, average diameter (MRSA USF656) [mm]	zone of growth inhibition, average diameter (MRSA USF657) [mm]	zone of growth inhibition, average diameter (MRSA USF658) [mm]	zone of growth inhibition, average diameter (MRSA USF659) [mm]	zone of growth inhibition, average diameter (Micrococcus luteus) [mm]	zone of growth inhibition, average diameter [1] [mm]	zone of growth inhibition, average diameter [2] [mm]	zone of growth inhibition, average diameter (S. simulans (ATCC 11631)) [mm]	zone of growth inhibition, average diameter [3] [mm]
COC1C(=O)N(SC)C1CCc1ccccc1 (racemic) [FIG. 3E]	18	20	17	15	17	14	15	15	20	16	12	9	9
CSN1C(=O)C(Oc2ccccc2)C1CCc1ccccc1 (racemic) [FIG. 3G]	14	12	13	11	13	12	12	12	17	14	12	8	10
CSN1C(=O)C(Oc2ccccc2)C1C=Cc1ccccc1 (racemic) [FIG. 3D]	14	16	14	15	13	13	12	12	10	15	10	8	11
CSN1C(=O)C(OC(C)=O)C1C=Cc1ccccc1 (racemic) [FIG. 3C]	18	18	16	18	17	16	16	15	17	15	19	10	12
